Assay results: paper PMC12392461, “Beyond Estrogenicity: A Comparative Assessment of Bisphenol A and Its Alternatives in In Vitro Assays Questions Safety of Replacements” (Environmental Science & Technology, 2025)
pEC50: −log10 of the molar value. Read-outs that look alike come from different tables or passages of the source.

Columns and labels:
[1] = cited from earlier work; for predicted or literature experimental log Kow: ref Hansch, 1995
neuronal stem cells = details: ref Liang et al.; cited from earlier work
Tox21 assays [2] = details: cited from earlier work
Tox21 assays [3] = test: Re-evaluated Tox21 data (Adamovsky et al.), REPBPA and SRbaseline; details: for SRbaseline: Specificity Ratio;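 on all read-outs here: published Tox21 results reanalysed with a revised model predicting baseline toxicity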
Description: We also reanalyzed the Tox21 data of Adamovsky et al. with the updated baseline toxicity prediction model (Table S2).

PPARγ = test system: PPARγ; set-up: method as in Crosthwait et al. 2025; Sun et al. 2025; details: ref Crosthwait et al. 2025; Sun et al. 2025; cited from earlier work
ERα [4] = test: Literature ERα reporter gene assays (comparison); assay type: cell-based; details: for EC10, approx.: in M (unit assumed)
Description: S5.4: Comparison with literature data for ERα reporter gene assays
To improve data comparability with our own results we converted reported EC₅₀ to EC₁₀ by dividing by 9, which is the ratio for log-logistic concentration-response curves with a hillslope of 1 (Figure S9a). Additionally, REPBPA values were calculated to enable a more consistent evaluation. Methodological differences between studies must be considered, as Reiniger et al.24 used the YES assay, while Goksøyr et al.25 applied ERα from fish (Figure S9b).
Cyan symbols highlight the ER-UAS-bla GripTite (this study and Tox21GenBLA).
(1 picture or pasted object on this page, not shown here)

ERα [5] = details: cited from earlier work
[6] = 15 min
[7] = test system: HEK293H, HEK293T, H4IIe, MCF7 and SH-SY5Y cells
Description: Cell culture conditions and bioassay protocols including response detection are provided in Text S2.1–2.4 and Table S3. − Cell viability was determined from cell confluency using an IncuCyte S3 Live-Cell Analysis System (Sartorius AG, Essen, Germany) before and after exposure, except for SH-SY5Y cells (live–dead staining with Nuclear Green LcS1 and propidium iodide, Abcam, UK). For metabolic activation experiments, cell viability was assessed using the ToxBLAzer DualScreen Kit (Thermo Fisher Scientific) to capture the remaining toxicity in ERα-UAS-bla GripTite after treatment with the aCYP catalyst (details in Text S2.4).
For ARE, the concentration that triggered an induction ratio of 1.5 (ECIR1.5) was used as the benchmark value, as detailed in Text S2.5. IC10 values also served as a threshold for data analysis in all assays; only concentrations below IC10 were considered when deriving EC10 or ECIR1.5.
TR indicates whether the cytotoxicity is triggered by specific toxicity mechanisms (TR ≥ 10) or not (0.1< TR< 10). 3 TR=IC10,baseline/IC10 We measured the cytotoxicity of BPA and its alternatives in HEK293H (PPARγ), HEK293T (ERα), H4IIe (AhR CALUX), MCF7 (ARE/MMP), and differentiated SH-SY5Y cells (Table S6). […]
medium, supplemented with 2% B-27 Supplement and 2 mM GlutaMAX Supplement. SH - SY5Y cells were differentiated with 10 µM all-trans retinoic acid prior to the assay.
S2.2: Cell Seeding and Incubation. For all bioassays, cell suspensions in the respective assay medium were dispensed into each well of 384-well plates using a MultiFlo Dispenser (Biotek, (now Agilent), Winooski, VT, U.S.). After seeding, the plates were incubated at 37° C and 5% CO₂ for […]. The final cell densities and plate types were as follows: Black poly-D-lysine […]
6500 cells/well, ERα: 5000 cells/well. White 384-well plates with a clear bottom (Product No.
NYC, U.S.) for AhR: 3250 cells/well. Black Collagen I coated plates were used (Product No.
S2.3: Chemical Dosing and Assay Analysis Procedures. The dosing procedure and high-throughput assay workflow have been described in detail before. 9 The dosing concentrations […]
Stock solutions were then either added directly to the respective cell culture medium or evaporated under nitrogen, followed by replenishment with fresh medium. The final solvent content in each well was kept below 1% for methanol, 0% for acetonitrile.
Dosing plates were prepared as 11 -step serial dilutions using a Hamilton Microlab Star robotic system (Hamilton, Bonaduz, Switzerland), and chemicals were dosed in duplicates by transferring 10 μL twice from the dosing plates to the cell plates . After quantifying cell confluency as described in S2. 4., the exposed cells were incubated at 37° C and 5% CO₂ for an additional 24 h. All chemicals were tested in all assays with at least three independent […]
S2.4: Cell Viability Measurement s and bioanalytical protocols . The confluency as a measure of cell viability was determined with an IncuCyte S3 Live -Cell Analysis System (Sartorius AG, Essen, Germany). With this method the confluency of cells in a microscopy image are normalized to control wells without cells and compared before and after 24 hours of exposure.
This method has been described previously 13. Cell viability of SH-SY5Y cells was measured […]
propidium iodide (PI, Abcam, Cambridge, U.K.).14 Nuclear Green LCS1 is a membrane-permeable dye that stains the nuclei of all cells, whereas PI only enters cells with compromised membrane integrity (non-viable cells). After staining, live cells show green nuclei without red fluorescence, while dead cells display both green and red nuclear fluorescence due to PI […]
intercalation. Cell viability was calculated as the proportion of green-only nuclei relative to the […]
For experiments with the preceding aCYP activation, ERα cell viability was additionally calculated from the readout of the ToxBLAzer reagent. The ToxBLAzer assay was conducted following the manufacturer's instructions (Thermo Fisher, Waltham, MA, U.S.).13 Fluorescence

[8] = TOX21_PPARg_BLA_antagonist_ratio, re-evaluated Tox21 data, ref Adamovsky et al 2024
[9] = Tox21BLA, ref Adamovsky et al. 2024
[10] = Tox21Luc, ref Adamovsky et al. 2024
[11] = TOX21_PPARg_BLA_antagonist_ratio
[12] = Atlantic cod estrogen receptor, approximated from literature EC50, ref Goksøyr et al 2024
[13] = Atlantic cod estrogen receptor, ref Goksøyr et al 2024
[14] = approximated from literature EC50, ref Pelch et al 2019
[15] = approximated from literature EC50, ref Reiniger et Oehlmann 2024
[16] = approximated from literature values, ref Kojima et al 2019
[17] = relative estrogenic potency vs BPA, ref Kojima et al 2019
[18] = relative estrogenic potency vs BPA, ref Pelch et al 2019
[19] = relative estrogenic potency vs BPA, ref Reiniger et Oehlmann 2024
[20] = estrogen receptor from Atlantic cod (Gadus morhua), ref Goksøyr et al 2024

For `CC(C)(c1ccc(O)cc1)c1ccc(O)cc1` [BPA, 4,4'-(Propane-2,2-diyl)diphenol, reference compound], the “log (KBSAw /(Lw/Lprotein)) (neutral species)” value ([1]; exp. + log(1.36 kg/L), ref Endo and Goss 2011) is given as 3.57, the “predicted or literature experimental log Kow” value [1] is given as 3.32 and the “log D lipw” value ([1]; pH 7.4, ref Kwon et al. 2006) is given as 3.65. The “log (DBSAw /(Lw/Lprotein) (pH7.4))” value ([1]; ref Endo and Goss 2011) was 3.01, the “log (KBSAw /(Lw/kgprotein)) (neutral species)” value ([1]; ref Endo and Goss 2011) was 3.44 and the “log (Dlipw/(Lwater/kglipid) or (Lwater/Llipid)) (pH 7.4)” value ([1]; ref Kwon et al. 2006) was 3.65. For the same compound, the “concentration with significant reduction in average neurite length” value (neuronal stem cells) was 1 nM, the EC10 (Tox21 assays [2]; ATG_NRF2_ARE_CIS_up, re-evaluated Tox21 data, ref Adamovsky et al 2024) was 7.56e-06 M and the EC10 (Tox21 assays [2]; TOX21_AR_LUC_MDAKB2_Antagonist_0,5nM_R1881, re-evaluated Tox21 data, ref Adamovsky et al 2024) was 2.42e-06 M. The EC10 (Tox21 assays [2]; TOX21_CAR_Agonist, re-evaluated Tox21 data, ref Adamovsky et al 2024) was 1.37e-06 M, the EC10 (Tox21 assays [2]; TOX21_CAR_Antagonist, re-evaluated Tox21 data, ref Adamovsky et al 2024) was 5.45e-07 M and the EC10 (Tox21 assays [2]; [8]) was 7.65e-06 M. The EC10 (Tox21 assays [2]; [9]) was 5.92E-07, the EC10 (Tox21 assays [2]; [10]) was 5.63E-08 and the REPBPA (Tox21 assays [3]; ATG_NRF2_ARE_CIS_up, Relative Effect Potency) was 1.00. It also gave an SRbaseline (Tox21 assays [3]; ATG_NRF2_ARE_CIS_up) of 10.51, an REPBPA (Tox21 assays [3]; TOX21_AR_LUC_MDAKB2_Antagonist_0,5nM_R1881, Relative Effect Potency) of 1.00 and an SRbaseline (Tox21 assays [3]; TOX21_AR_LUC_MDAKB2_Antagonist_0,5nM_R1881) of 32.80. The REPBPA (Tox21 assays [3]; TOX21_CAR_Agonist, Relative Effect Potency) was 1.00, the SRbaseline (Tox21 assays [3]; TOX21_CAR_Agonist) was 57.94 and the REPBPA (Tox21 assays [3]; TOX21_CAR_Antagonist, Relative Effect Potency) was 1.00. It also gave an SRbaseline (Tox21 assays [3]; TOX21_CAR_Antagonist) of 145.9, an SRbaseline (Tox21 assays [3]; [11]) of 10.39 and an REPBPA (Tox21 assays [3]; [9]) of 1.00E+00. For the same compound, the REPBPA (Tox21 assays [3]; [10]) was 1.00E+00, the “PPARγ transactivation reported in the literature” value (PPARγ) was “No agonism was detected” and the “EC10, approx.” value (ERα [4]; [12]) was roughly 2.11E-07. For the same compound, the REPBPA (ERα [4]; [13]) was 1.00E+00, the “EC10, approx.” value (ERα [4]; [14]) was roughly 1.33E-07 and the “EC10, approx.” value (ERα [4]; [15]) was roughly 2.51E-07. The “EC10, approx.” value (ERα [4]; [16]) was roughly 3.65E-08, the REPBPA (ERα [4]; [17]) was 1.00E+00 and the REPBPA (ERα [4]; [18]) was 1.00E+00. For the same compound, the REPBPA (ERα [4]; [19]) was 1.00E+00, the pEC50 (ERα [5]; [20]) was 5.72 and the pEC50 (ERα [5]; ref Kojima et al 2019) was 6.48. The pEC50 (ERα [5]; ref Pelch et al 2019) was 5.92, the Efficacy % (ERα [5]; ref Pelch et al 2019) was 110.30% and the pEC50 (ERα [5]; ref Reiniger et Oehlmann 2024) was 5.65. The Efficacy % (ERα [5]; ref Reiniger et Oehlmann 2024) was 9.42E+01%.

For `Oc1ccc(Cc2ccc(O)cc2)cc1` [BPF, Bis(4-hydroxyphenyl)methane], the “predicted or literature experimental log Kow” value [1] is listed as 2.91, the “concentration with significant reduction in average neurite length” value (neuronal stem cells) is listed as 1 nM and the EC10 (Tox21 assays [2]; ATG_PPARg_TRANS_up, re-evaluated Tox21 data, ref Adamovsky et al 2024) is listed as 3.95e-06 M. The EC10 (Tox21 assays [2]; [8]) was 9.55e-06 M, the EC10 (Tox21 assays [2]; [10]) was 8.91E-08 and the REPBPA (Tox21 assays [3]; ATG_PPARg_TRANS_up, Relative Effect Potency) was 0.40. The SRbaseline (Tox21 assays [3]; ATG_PPARg_TRANS_up) was 41.61, the SRbaseline (Tox21 assays [3]; [11]) was 17.20 and the REPBPA (Tox21 assays [3]; [10]) was 4.84E-01. For the same compound, the “EC10, approx.” value (ERα [4]; [12]) was roughly 4.22E-07, the REPBPA (ERα [4]; [13]) was 5.00E-01 and the “EC10, approx.” value (ERα [4]; [14]) was roughly 1.78E-07. For the same compound, the “EC10, approx.” value (ERα [4]; [15]) was roughly 2.82E-07, the “EC10, approx.” value (ERα [4]; [16]) was roughly 5.50E-08 and the REPBPA (ERα [4]; [17]) was 6.64E-01. For the same compound, the REPBPA (ERα [4]; [18]) was 7.50E-01, the REPBPA (ERα [4]; [19]) was 8.90E-01 and the pEC50 (ERα [5]; [20]) was 5.42. The pEC50 (ERα [5]; ref Kojima et al 2019) was 6.49, the pEC50 (ERα [5]; ref Pelch et al 2019) was 5.80 and the Efficacy % (ERα [5]; ref Pelch et al 2019) was 63.10%. For the same compound, the pEC50 (ERα [5]; ref Reiniger et Oehlmann 2024) was 5.60, the Efficacy % (ERα [5]; ref Reiniger et Oehlmann 2024) was 1.05E+02% and the “reduction of C parent after aCYP oxidation” value [6] was 48%. The “cytotoxicity,median REPBPA,IC10” value ([7]; median IC10 relative to BPA) was 0.17, the “IC10,Median (M)” value ([7]; median cytotoxicity of all cell lines) was 4.09 × 10^–4 M and the “IC10, median” value ([7]; median cytotoxicity over all cell lines) was 409 µM.
